A word on the tissue uptake: it is the share of the injected amount in each gram of the tissue. Read a low tissue uptake as little accumulation.

Read-outs that look alike come from different tables or passages of the source.

In paper PMC4402678, “Twins in spirit - episode I: comparative preclinical evaluation of [^68Ga]DOTATATE and [^68Ga]HA-DOTATATE” (EJNMMI Research, 2015) one finds tissue uptake data, which are given here for 1 compound.

The conditions of data set [1]: mouse, in vivo, iv, Biodistribution Lung, Control.
Protocol: (§1) To establish tumor growth, AR42J cells were detached from the surface of the culture flasks using 1 mM EDTA in PBS, centrifuged, and resuspended in serum-free culture medium. Concentration of the cell suspension was 2.5 to 5 × 10^6 cells/100 μL. Nude mice (CD-1 nu/nu, female, 6 to 8 weeks, from Charles River WIGA GmbH, Sulzfeld, Germany) were injected with 100 μL of the cell suspension subcutaneously into the flank. […] For competition studies, 20 μg TOC (0.8 mg/kg) were coinjected with the radioligands. The animals (groups of 4 to 5) were sacrificed 1 h post injection and the organs of interest were dissected. The radioactivity was measured in weighted tissue samples using a γ-counter. Data are given in %iD/g and are means ± SD.
Data set [2] can be described thus: Biodistribution in AR42J tumor-bearing nude mice. Conditions: mouse, in vivo, 60 min p.i.
Protocol: as §1

`C[C@@H](O)[C@H](NC(=O)[C@@H]1CSSC[C@H](NC(=O)[C@@H](Cc2ccccc2)NC(=O)CN2CCN(CC(=O)O)CCN(CC(=O)O)CCN(CC(=O)O)CC2)C(=O)N[C@@H](Cc2ccc(O)cc2)C(=O)N[C@H](Cc2c[nH]c3ccccc23)C(=O)N[C@@H](CCCCN)C(=O)N[C@@H]([C@@H](C)O)C(=O)N1)C(=O)O` [[^68Ga]DOTATATE, [^68Ga]DOTA-Tyr^3-octreotate, metal not drawn]: the tissue uptake at 1 h in data set [1] is 8.4 ± 1.4 %ID/g; in data set [2] (Biodistribution AR42J tumor, Competition, coinjection of 20 μg/mouse unlabeled TOC, n = 3), 2 ± 0.1 %ID/g; in data set [2] (Biodistribution Adrenals, Competition, coinjection of 20 μg/mouse unlabeled TOC, n = 3) it was 0.4 ± 0.1 %ID/g; in data set [2] (Biodistribution Blood, Competition, coinjection of 20 μg/mouse unlabeled TOC, n = 3) it was 0.4 ± 0.2 %ID/g; in data set [2] (Biodistribution Heart, Competition, coinjection of 20 μg/mouse unlabeled TOC, n = 3), 0.2 ± 0.1 %ID/g; in data set [2] (Biodistribution Intestine, Competition, coinjection of 20 μg/mouse unlabeled TOC, n = 3) it was 0.6 ± 0.2 %ID/g. For the same compound, the tissue uptake at 1 h in data set [2] (Biodistribution Liver, Competition, coinjection of 20 μg/mouse unlabeled TOC, n = 3) came out at 0.2 ± 0.05 %ID/g; in data set [2] (Biodistribution Lung, Competition, coinjection of 20 μg/mouse unlabeled TOC, n = 3), 0.6 ± 0.2 %ID/g; in data set [2] (Biodistribution Muscle, Competition, coinjection of 20 μg/mouse unlabeled TOC, n = 3) it was 0.2 ± 0.1 %ID/g; in data set [2] (Biodistribution Spleen, Competition, coinjection of 20 μg/mouse unlabeled TOC, n = 3) it was 0.2 ± 0.03 %ID/g; in data set [2] (Biodistribution Stomach, Competition, coinjection of 20 μg/mouse unlabeled TOC, n = 3), 0.7 ± 0.1 %ID/g; in data set [2] (iv, Biodistribution AR42J tumor, Control, tracer only, n = 5), 24.1 ± 4.9 %ID/g. Further, the tissue uptake at 1 h in data set [2] (iv, Biodistribution Adrenals, Control, tracer only, n = 5) worked out at 5.1 ± 1.4 %ID/g; in data set [2] (iv, Biodistribution Blood, Control, tracer only, n = 5) it was 0.3 ± 0.06 %ID/g; in data set [2] (iv, Biodistribution Heart, Control, tracer only, n = 5), 0.3 ± 0.04 %ID/g; in data set [2] (iv, Biodistribution Intestine, Control, tracer only, n = 5), 2.7 ± 0.8 %ID/g; in data set [2] (iv, Biodistribution Kidney, Control, tracer only, n = 5), 3.9 ± 0.5 %ID/g; in data set [2] (iv, Biodistribution Liver, Control, tracer only, n = 5), 0.5 ± 0.1 %ID/g. In addition, the tissue uptake at 1 h in data set [2] (iv, Biodistribution Muscle, Control, tracer only, n = 5) amounted to 0.3 ± 0.2 %ID/g; in data set [2] (iv, Biodistribution Pancreas, Control, tracer only, n = 5) it was 26.1 ± 4.9 %ID/g; in data set [2] (iv, Biodistribution Stomach, Control, tracer only, n = 5), 15.9 ± 3.9 %ID/g.
